pIC50: −log10 of the molar value.

For the assay, the target named is HIF PHD2 (Homo sapiens, UniProt Q9GZT9). In words: PHD2 inhibition assay (TR-FRET, VCB-Eu detection of hydroxylated P564-HIF1α peptide). Format: biochemical. The following applies: 2 nM PHD2, 100 nM P564-HIF1α peptide, 0.25 μM 2-oxoglutarate, 100 μM FeCl2, 2 mM ascorbic acid, pH 6. How it is done: Inhibition of HIF PHD2 activity was quantified utilizing the TR-FRET technology. HIF PHD2 catalyzes a hydroxyl modification on the proline residue of the P564-HIF1α peptide substrate (Biotin-[…] (SEQ ID NO: 7)) resulting in recognition and binding of the europylated Von Hippel-Lindau protein (pVHL), elongin B and elongin C heterotrimeric (VCB-Eu) complex.
HIF PHD2, sequence (Q9GZT9 whole entry): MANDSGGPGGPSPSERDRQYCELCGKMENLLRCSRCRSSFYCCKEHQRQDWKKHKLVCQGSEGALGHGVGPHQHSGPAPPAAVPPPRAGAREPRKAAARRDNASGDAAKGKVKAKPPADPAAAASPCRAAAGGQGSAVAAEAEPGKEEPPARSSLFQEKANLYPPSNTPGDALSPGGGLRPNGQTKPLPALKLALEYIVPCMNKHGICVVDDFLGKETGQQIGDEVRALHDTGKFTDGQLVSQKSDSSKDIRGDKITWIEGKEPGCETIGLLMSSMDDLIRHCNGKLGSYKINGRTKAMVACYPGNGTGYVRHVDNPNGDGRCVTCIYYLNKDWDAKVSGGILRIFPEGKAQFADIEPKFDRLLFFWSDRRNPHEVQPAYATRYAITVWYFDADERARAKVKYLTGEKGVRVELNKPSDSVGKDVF
The PHD2 inhibition assay was executed by addition of freshly dissolved FeCl2 to 178.57 μM (100 μM final concentration) in PHD2 Reaction Buffer containing 30 mM MES, pH 6, 10 mM NaCl, 0.25% Brij-35, 0.01% BSA, and 1% DMSO. 28 μL of the iron solution and 2 μL of inhibitor compounds serially diluted in 100% DMSO (5% DMSO final) were added to black polypropylene 96-well microtiter plates. To that, 10 μL of 10 nM PHD2 (2 nM final) was added to all wells of the plate except for the 8 wells of column 12 (LO control), and allowed to incubate at room temperature on the shaker for one hour. Column 6 was the HI control containing PHD2 enzyme and 5% DMSO vehicle, but no inhibitor compound. To initiate the PHD2 enzymatic reaction, 10 μL of a solution containing 500 nM P564-HIF1α peptide (100 nM final), 10 mM ascorbic acid (2 mM final), and 1.25 μM 2-oxoglutarate (α-ketoglutarate; 0.25 μM final) in PHD2 Reaction Buffer was added to all wells of the plate and allowed to incubate on the shaker at room temperature for one hour.
The reaction was terminated by addition of 25 μL TR-FRET Buffer (50 mM TRIS-HCl, pH 9, 100 mM NaCl, 0.05% BSA, and 0.5% Tween-20) containing 150 mM succinate (product inhibitor; 50 mM final), 75 nM streptavidin-APC (25 nM final), and 7.5 nM VCB-Eu (2.5 nM final). The TR-FRET detection reagents were placed on a shaker for 1 hour to reach binding equilibrium before reading on the Discovery platform (PerkinElmer). Europium is excited at 315 nm and phosphoresces at 615 nm with a large Stoke's shift. APC, in turn, emits at 655 nm upon excitation at 615 nm. The TR-FRET signal is measured as the ratio of the APC 655 nm signal divided by the internal europium reference 615 nm emission signal.
The POC (percentage of control) was determined by comparing the signal from hydroxylated peptide substrate in the enzyme reaction containing inhibitor compound with that from PHD2 enzyme with DMSO vehicle alone (HI control), and no enzyme (LO control). POC was calculated using the formula: % control (POC)=(cpd−average LO)/(average HI−average LO)*100. Data (consisting of POC and inhibitor concentration in μM) was fitted to a 4-parameter equation (y=A+((B−A)/(1+((x/C)^D))), where A is the minimum y (POC) value, B is the maximum y (POC), C is the x (cpd concentration) at the point of inflection and D is the slope factor) using a Levenburg-Marquardt non-linear regression algorithm.
(In TR-FRET formats the signal depends on donor and acceptor labels being close together.)
`Cn1c(=O)c(C(=O)NCC(=O)O)c(O)c2cnc(-c3cnc4ccccc4c3)nc21` [Example 49, 2-(5-hydroxy-8-methyl-7-oxo-2-(quinolin-3-yl)-7,8-dihydropyrido[2,3-d]pyrimidine-6-carboxamido)acetic acid] gave a pIC50 of 8.49.
To `Cn1c(=O)c(C(=O)NCC(=O)O)c(O)c2cnc(-c3ccc4ccccc4c3)nc21` [Example 41, 2-(5-hydroxy-8-methyl-2-(naphthalen-2-yl)-7-oxo-7,8-dihydropyrido[2,3-d]pyrimidine-6-carboxamido)acetic acid] belongs 8.03; to `CCC1CCC(C)N(c2ncc3c(O)c(C(=O)NCC(=O)O)c(=O)n(C)c3n2)C1` (stereo not shown) [Example 20, 2-(2-(5-ethyl-2-methylpiperidin-1-yl)-5-hydroxy-8-methyl-7-oxo-7,8-dihydropyrido[2,3-d]pyrimidine-6-carboxamido)acetic acid], 6.76; to `Cn1c(=O)c(C(=O)NCC(=O)O)c(O)c2cc(C3=CCCC3)nnc21` [Example 4, 2-(3-cyclopentenyl-5-hydroxy-8-methyl-7-oxo-7,8-dihydropyrido[2,3-c]pyridazine-6-carboxamido)acetic acid], 7.77.

A word on the pIC50: it is −log10 of the IC50, conventionally taken in molar units. High values mean a small IC50, low ones a large IC50.

Source of the values: patent US8097620B2, “Diazaquinolones that inhibit prolyl hydroxylase activity” (Amgen Inc., priority 2007, dated 2012).
